Experimental data reported in patent publication US20230141863A1, “Small Molecule Inhibitors Targeting the Sodium Channel Tamoxifen Receptor and Uses Thereof” (Northwestern University, priority 2021, published 2023).

Target: T1, human Nav1.7 (Homo sapiens, UniProt Q15858)
T1 construct: expressed in transfected cells; host or cells: HEK cells, transient transfection with lipofectamine
Test: Voltage clamp of heterologously expressed Nav1.7
Assay type: cell-based
Settings: Hill fit, printed for ND-Tam and 4OH-Tam together
Experimental: While no clear drug-receptor interactions were determined within Siteout, the S6 E220 side chains formed hydrogen bond interactions with the ether and amine moieties of the ND-Tam molecules found at Sitein. […] After structural alignment of the crystalized NavMs-Tam complex with the cryo EM Nav1.7+b1+b2 channel coordinates, the S6 side chain hydroxyl in DII (S969) and the carboxyl side chains in DIII (E1458) and DIV (D1761) observed in the human channel were nearly superimposable with E220 of the prokaryotic Nav subunits. In addition, the distances from the drug ether and amines were within acceptable distances (2.8-3.1 Å) for hydrogen bond formation for all three site chains (FIG. 2B). […]
Plasmids encoding the human version of channels Nav1.1, 1.6, and 1.7 were co-transfected with TRES GFP into HEK cell lines for whole-cell voltage clamp studies (American Type Culture Collection). […] Plasma membrane currents were recorded using borosilicate glass electrodes polished to resistances of […]. Sodium currents conducted by heterologously expressed Navs were recorded using the following solutions (in mM). […] Endogenous DRG sodium currents were recorded using an intracellular solution consisting of 70 CsCl, 70 CsF, 2 EGTA, 5 HEPES, and 5 NaCl; the pH was adjusted to 7.4 with CsOH. […]

T1 sequence (Q15858 whole entry): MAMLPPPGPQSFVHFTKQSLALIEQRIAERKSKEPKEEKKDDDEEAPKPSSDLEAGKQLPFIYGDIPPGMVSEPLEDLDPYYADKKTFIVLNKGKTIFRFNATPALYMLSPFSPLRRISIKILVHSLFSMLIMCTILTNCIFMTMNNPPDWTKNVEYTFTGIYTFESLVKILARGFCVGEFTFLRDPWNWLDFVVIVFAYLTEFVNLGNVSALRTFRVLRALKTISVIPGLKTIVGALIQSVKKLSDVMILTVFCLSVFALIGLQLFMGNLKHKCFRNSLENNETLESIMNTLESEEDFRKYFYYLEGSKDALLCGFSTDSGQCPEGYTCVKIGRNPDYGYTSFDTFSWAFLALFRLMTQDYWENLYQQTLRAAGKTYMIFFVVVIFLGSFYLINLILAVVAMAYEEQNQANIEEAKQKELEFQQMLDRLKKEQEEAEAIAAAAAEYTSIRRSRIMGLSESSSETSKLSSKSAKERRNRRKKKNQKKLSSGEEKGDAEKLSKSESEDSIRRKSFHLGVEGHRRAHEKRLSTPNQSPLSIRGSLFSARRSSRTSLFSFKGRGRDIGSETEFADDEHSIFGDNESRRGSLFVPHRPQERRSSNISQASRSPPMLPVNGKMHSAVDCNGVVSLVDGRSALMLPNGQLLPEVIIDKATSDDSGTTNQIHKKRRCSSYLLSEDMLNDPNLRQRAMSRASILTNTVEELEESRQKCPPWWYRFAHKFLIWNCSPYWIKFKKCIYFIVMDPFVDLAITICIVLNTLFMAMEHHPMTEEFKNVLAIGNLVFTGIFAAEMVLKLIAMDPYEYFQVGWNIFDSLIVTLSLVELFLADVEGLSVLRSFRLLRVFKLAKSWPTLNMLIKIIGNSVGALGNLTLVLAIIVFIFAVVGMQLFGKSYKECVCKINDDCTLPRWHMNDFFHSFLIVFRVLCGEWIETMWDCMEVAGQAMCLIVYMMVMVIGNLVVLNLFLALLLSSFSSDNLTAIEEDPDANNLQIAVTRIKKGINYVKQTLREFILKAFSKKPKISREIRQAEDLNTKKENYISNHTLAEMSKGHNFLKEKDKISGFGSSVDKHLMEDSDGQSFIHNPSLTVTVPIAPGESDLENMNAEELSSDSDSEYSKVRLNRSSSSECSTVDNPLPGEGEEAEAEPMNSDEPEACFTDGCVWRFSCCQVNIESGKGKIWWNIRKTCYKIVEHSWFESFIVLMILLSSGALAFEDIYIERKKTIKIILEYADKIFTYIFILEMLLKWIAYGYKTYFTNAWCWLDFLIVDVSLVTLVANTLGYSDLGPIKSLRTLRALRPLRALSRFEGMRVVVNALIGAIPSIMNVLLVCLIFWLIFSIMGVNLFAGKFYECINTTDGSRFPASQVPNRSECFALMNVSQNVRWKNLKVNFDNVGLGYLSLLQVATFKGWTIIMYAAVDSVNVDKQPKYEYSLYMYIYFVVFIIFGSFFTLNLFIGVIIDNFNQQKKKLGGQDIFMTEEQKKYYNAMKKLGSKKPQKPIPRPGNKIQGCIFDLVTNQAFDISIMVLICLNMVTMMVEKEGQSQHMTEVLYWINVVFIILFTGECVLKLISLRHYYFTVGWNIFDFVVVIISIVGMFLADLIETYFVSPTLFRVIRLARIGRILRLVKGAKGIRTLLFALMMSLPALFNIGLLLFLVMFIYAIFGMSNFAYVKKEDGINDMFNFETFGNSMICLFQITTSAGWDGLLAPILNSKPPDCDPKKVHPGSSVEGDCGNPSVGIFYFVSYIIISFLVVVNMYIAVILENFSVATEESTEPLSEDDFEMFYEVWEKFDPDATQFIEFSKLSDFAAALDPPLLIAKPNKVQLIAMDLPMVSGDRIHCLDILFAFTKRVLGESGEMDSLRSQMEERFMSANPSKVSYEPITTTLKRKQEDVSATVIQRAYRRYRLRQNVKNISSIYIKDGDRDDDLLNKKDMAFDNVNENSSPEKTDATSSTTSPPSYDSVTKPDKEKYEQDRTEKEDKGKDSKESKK

slope of concentration-dependence: 2.1
SMILES: CC/C(=C(\c1ccccc1)c1ccc(OCCNC)cc1)c1ccccc1 [ND-Tam, 2-[4-[(Z)-1,2-diphenylbut-1-enyl]phenoxy]-N-methylethanamine]
